Data on 16 molecules can be found in patent US11292801B2, “Calpain modulators and therapeutic uses thereof” (Blade Therapeutics, Inc., priority 2016, dated 2022).

SMILES strings stand for the structures.

One assay has as its target T1, Human Calpain 9/NS1 (Homo sapiens, UniProt O14815).
T1 sequence (O14815 1-690): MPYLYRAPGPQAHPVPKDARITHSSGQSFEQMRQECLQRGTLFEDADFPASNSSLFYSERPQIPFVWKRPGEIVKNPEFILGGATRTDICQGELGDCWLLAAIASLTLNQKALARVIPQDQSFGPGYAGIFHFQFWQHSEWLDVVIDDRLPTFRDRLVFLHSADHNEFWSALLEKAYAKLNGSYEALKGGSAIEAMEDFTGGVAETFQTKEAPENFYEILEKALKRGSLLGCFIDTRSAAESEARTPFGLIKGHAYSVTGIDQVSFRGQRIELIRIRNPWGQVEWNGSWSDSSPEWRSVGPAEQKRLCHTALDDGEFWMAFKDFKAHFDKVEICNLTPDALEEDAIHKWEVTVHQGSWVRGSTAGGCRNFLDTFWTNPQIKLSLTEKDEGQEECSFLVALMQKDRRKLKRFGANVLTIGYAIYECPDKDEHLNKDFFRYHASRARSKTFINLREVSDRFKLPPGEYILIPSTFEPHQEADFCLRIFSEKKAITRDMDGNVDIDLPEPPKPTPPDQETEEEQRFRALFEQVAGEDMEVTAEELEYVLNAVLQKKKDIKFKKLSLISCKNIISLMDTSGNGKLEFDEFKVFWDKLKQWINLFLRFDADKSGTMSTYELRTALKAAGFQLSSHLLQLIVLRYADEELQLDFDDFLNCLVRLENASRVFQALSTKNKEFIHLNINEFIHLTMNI
T1 sequence (P04632 1-268 partner): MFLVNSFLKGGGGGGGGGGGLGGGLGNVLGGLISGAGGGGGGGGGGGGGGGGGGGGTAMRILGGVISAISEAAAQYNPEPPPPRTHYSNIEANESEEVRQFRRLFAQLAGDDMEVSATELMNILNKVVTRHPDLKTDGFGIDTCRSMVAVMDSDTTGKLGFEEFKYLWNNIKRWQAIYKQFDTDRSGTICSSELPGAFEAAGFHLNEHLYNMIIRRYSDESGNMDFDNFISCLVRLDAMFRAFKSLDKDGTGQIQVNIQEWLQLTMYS
The assay is described as follows: Biochemical inhibition of calpain 9, continuous fluorescence (FRET substrate) assay. Conditions: mean, read-out: Human Calpain 9/NS1 IC50 (nM)_MEAN. The method, boiled down:
(§1)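 Continuous FRET assay with 5-FAM/QXL520 peptide substrate in 50 mM Tris pH ~7.5, 100 mM NaCl, 1 mM DTT. Enzyme preincubated with inhibitor at 25C; reaction started with substrate plus CaCl2, read at 490/520 nm for 10 min. Rates from slopes over 1-5 min, IC50 from 4-parameter logistic fit.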

The next assay concerns the target T2, Human Calpain 2/NS1 (Homo sapiens, UniProt P17655).
T2 sequence (P17655 1-700): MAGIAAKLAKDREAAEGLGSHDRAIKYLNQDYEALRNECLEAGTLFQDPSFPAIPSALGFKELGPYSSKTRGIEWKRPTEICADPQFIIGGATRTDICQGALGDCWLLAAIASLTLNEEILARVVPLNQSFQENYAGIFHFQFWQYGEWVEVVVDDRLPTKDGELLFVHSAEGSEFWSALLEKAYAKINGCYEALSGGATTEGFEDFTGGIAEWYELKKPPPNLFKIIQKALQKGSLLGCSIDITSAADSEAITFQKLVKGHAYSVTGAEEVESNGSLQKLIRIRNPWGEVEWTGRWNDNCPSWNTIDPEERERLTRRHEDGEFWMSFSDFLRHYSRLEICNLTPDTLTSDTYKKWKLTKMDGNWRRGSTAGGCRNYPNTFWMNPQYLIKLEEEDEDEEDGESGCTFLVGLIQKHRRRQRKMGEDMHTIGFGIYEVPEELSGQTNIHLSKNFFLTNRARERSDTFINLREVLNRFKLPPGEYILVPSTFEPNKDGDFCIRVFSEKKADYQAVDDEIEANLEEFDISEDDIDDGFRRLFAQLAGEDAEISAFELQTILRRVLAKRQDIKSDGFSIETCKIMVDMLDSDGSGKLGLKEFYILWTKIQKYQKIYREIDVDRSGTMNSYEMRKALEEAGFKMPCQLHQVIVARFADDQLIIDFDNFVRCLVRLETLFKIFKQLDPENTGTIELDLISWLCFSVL
T2 sequence (P04632 1-268 partner): T1 sequence (P04632 1-268 partner)
The assay is described as follows: Biochemical inhibition of calpain 2, continuous fluorescence (FRET substrate) assay. As to conditions: mean, read-out: Human Calpain 2/NS1 IC50 (nM)_MEAN. The method, boiled down: as §1

In another assay the target is T3, Human Calpain 1/NS1 (Homo sapiens, UniProt P07384).
T3 sequence (P07384 1-714): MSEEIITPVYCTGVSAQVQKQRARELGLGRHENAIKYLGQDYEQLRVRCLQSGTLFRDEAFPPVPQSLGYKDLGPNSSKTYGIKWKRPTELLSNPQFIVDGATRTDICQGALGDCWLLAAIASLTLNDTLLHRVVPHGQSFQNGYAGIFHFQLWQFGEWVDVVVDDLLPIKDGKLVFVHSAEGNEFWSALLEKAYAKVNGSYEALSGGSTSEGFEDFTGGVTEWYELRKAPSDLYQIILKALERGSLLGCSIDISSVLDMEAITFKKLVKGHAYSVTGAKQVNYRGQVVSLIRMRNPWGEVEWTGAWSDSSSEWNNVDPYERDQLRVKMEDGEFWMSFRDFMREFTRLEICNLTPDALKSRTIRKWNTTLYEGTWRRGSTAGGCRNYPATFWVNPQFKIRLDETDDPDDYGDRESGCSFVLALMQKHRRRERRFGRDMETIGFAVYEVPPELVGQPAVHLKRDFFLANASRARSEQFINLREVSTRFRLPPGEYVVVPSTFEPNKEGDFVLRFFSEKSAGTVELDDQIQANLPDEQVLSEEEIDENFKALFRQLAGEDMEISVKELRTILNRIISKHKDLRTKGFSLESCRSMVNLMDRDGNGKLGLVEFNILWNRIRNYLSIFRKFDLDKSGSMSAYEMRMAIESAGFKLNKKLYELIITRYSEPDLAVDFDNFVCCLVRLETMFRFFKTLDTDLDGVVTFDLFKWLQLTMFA
T3 sequence (P04632 1-268 partner): T1 sequence (P04632 1-268 partner)
The assay is described as follows: Biochemical inhibition of calpain 1, continuous fluorescence (FRET substrate) assay. Conditions: mean, read-out: Human Calpain 1/NS1 IC50 (nM)_MEAN. Put shortly:
as §1

`COc1ccc(CNC(=O)C(=O)C2CCCCOCCOCc3ccccc3C(=O)N2)c(OC)c1` (stereo not drawn) [Compound 99, N-(2,4-dimethoxybenzyl)-2-oxo-2-(12-oxo-1,3,4,6,7,8,9,10,11,12-decahydrobenzo[f][1,4]dioxa[9]azacyclotetradecin-10-yl)acetamide]: the IC50 on Human Calpain 9/NS1 was 3000 to 10000 nM; at Human Calpain 2/NS1, 3000 to 10000 nM; on Human Calpain 1/NS1 it was more than 10000 nM.
As to `Cn1cc2c(n1)-c1cccc(c1)OCCCCC[C@@H](C(=O)C(N)=O)NC2=O` [Compound 142, (S)-2-(1′-methyl-11-oxo-1^1H-3-oxa-10-aza-1(3,4)-pyrazola-2(1,3)-benzenacycloundecaphane-9-yl)-2-oxoacetamide], the results for the IC50 on Human Calpain 9/NS1, at Human Calpain 2/NS1 and at Human Calpain 1/NS1 were less than 3000 nM, more than 10000 nM and more than 10000 nM, respectively.
Consider `O=C(NC1(c2cccnc2)CC1)C(=O)C1CCCCOCCOCc2ccccc2C(=O)N1` (stereo not drawn) [Compound 125, 2-Oxo-2-(12-oxo-1,3,4,6,7,8,9,10,11,12-decahydrobenzo[f][1,4]dioxa[9]aza-cyclotetradecin-10-yl)-N-(1-(pyridin-3-yl)cyclopropyl)acetamide], for which the IC50 at Human Calpain 9/NS1, at Human Calpain 2/NS1 and at Human Calpain 1/NS1 was more than 10000 nM throughout.
As to `O=C[C@@H]1Cc2ccccc2C=CCCCCOc2ccccc2C(=O)N1` [Compound 13, (S)-19-Oxo-6,7,8,9,16,17,18,19-octahydrodibenzo[b,h][1]oxa[5]aza-cyclopentadecine-17-carbaldehyde], the IC50 on Human Calpain 9/NS1 was 3000 to 10000 nM; at Human Calpain 2/NS1, less than 3000 nM; at Human Calpain 1/NS1, 3000 to 10000 nM.
Consider `O=C(NCc1ccncc1)C(=O)C1CCCCOCCOCc2ccccc2C(=O)N1` (stereo not drawn) [Compound 117, 2-Oxo-2-(12-oxo-1,3,4,6,7,8,9,10,11,12-decahydrobenzo[f][1,4]dioxa[9]aza-cyclotetradecin-10-yl)-N-(pyridin-4-ylmethyl)acetamide], for which the IC50 was less than 3000 nM on Human Calpain 9/NS1, 3000 to 10000 nM at Human Calpain 2/NS1 and more than 10000 nM at Human Calpain 1/NS1.
On the same counts, the results for `NC(=O)C(=O)[C@@H]1CCCCCCOc2ccnc(n2)-c2ccccc2C(=O)N1` [Compound 134, (S)-2-oxo-2-(3-oxo-12-oxa-4-aza-1(2,4)-pyrimidina-2(1,2)-benzenacyclododecaphane-5-yl)acetamide] are less than 3000 nM, less than 3000 nM and less than 3000 nM.
Consider `CCNC(=O)C(=O)[C@@H]1Cc2ccc(cc2)OCCCCOc2cccc(c2)-c2ccn(n2)-c2ncccc2C(=O)N1` [Compound 45, N-ethyl-2-oxo-2-((6S,E)-4-oxo-2^1H-9,14-dioxa-5-aza-3(2,3)-pyridina-2(3,1)-pyrazola-1(1,3),8(1,4)-dibenzenacyclotetradecaphane-6-yl)acetamide], for which the IC50 at Human Calpain 9/NS1, at Human Calpain 2/NS1 and on Human Calpain 1/NS1 was less than 3000 nM in each case.
In the case of `O=C[C@@H]1Cc2ccc(cc2)CCCCc2ccc3nn(cc3c2)-c2ncccc2C(=O)N1` [Compound 76, (1^3Z,1^4Z,5S)-3-oxo-1^2H-4-aza-1(2,5)-indazola-2(2,3)-pyridina-7(1,4)-benzenacycloundecaphane-5-carbaldehyde], the IC50 on Human Calpain 9/NS1, at Human Calpain 2/NS1 and at Human Calpain 1/NS1 was less than 3000 nM in each case.
Turning to `O=C[C@@H]1CC=CCOCCOc2ccccc2C(=O)N1` [Compound 18, (S)-11-Oxo-2,3,8,9,10,11-hexahydro-5h-benzo[e][1,4]dioxa[8]azacyclotridecine-9-carbaldehyde], the results for the IC50 on Human Calpain 9/NS1, at Human Calpain 2/NS1 and on Human Calpain 1/NS1 were 3000 to 10000 nM, more than 10000 nM and more than 10000 nM, respectively.
Turning to `CC(C)NC(=O)C(=O)[C@@H]1C/C=C\COCCOCc2ccccc2C(=O)N1` [Compound 58, (S,Z)—N-isopropyl-2-oxo-2-(12-oxo-1,3,4,6,9,10,11,12-octahydrobenzo[f][1,4]dioxa[9]azacyclotetradecin-10-yl)acetamide], the IC50 on Human Calpain 9/NS1, on Human Calpain 2/NS1 and on Human Calpain 1/NS1 was more than 10000 nM throughout.
Consider `O=C[C@@H]1CCCCCOc2ccnc(c2)-c2ccccc2C(=O)N1` [Compound 149, (S)-3-oxo-11-oxa-4-aza-1(2,4)-pyridina-2(1,2)-benzenacycloundecaphane-5-carbaldehyde], for which the IC50 at Human Calpain 9/NS1, on Human Calpain 2/NS1 and on Human Calpain 1/NS1 was less than 3000 nM each time.
For the molecule `O=C[C@@H]1C/C=C/CCCCCCCc2ccccc2C(=O)N1` [Compound 23, (S,E)-1-Oxo-2,3,4,7,8,9,10,11,12,13-decahydro-1h-benzo[c][1]aza-cyclopentadecine-3-carbaldehyde], the IC50 on Human Calpain 9/NS1, on Human Calpain 2/NS1 and at Human Calpain 1/NS1 was less than 3000 nM throughout.
On to `O=C(NCc1ccc(Cl)c(Cl)c1)C(=O)C1CCCCOCCOCc2ccccc2C(=O)N1` (stereo not drawn) [Compound 83, N-(3,4-dichlorobenzyl)-2-oxo-2-(12-oxo-1,3,4,6,7,8,9,10,11,12-decahydrobenzo[f][1,4]dioxa[9]azacyclotetradecin-10-yl)acetamide], for which the values for the IC50 at Human Calpain 9/NS1, at Human Calpain 2/NS1 and at Human Calpain 1/NS1 were less than 3000 nM, 3000 to 10000 nM and more than 10000 nM, respectively.
Take `CCCCNC(=O)C(=O)[C@@H]1CCCCOCCOCc2ccccc2C(=O)N1` [Compound 53, (S)—N-butyl-2-oxo-2-(12-oxo-1,3,4,6,7,8,9,10,11,12-decahydrobenzo[f][1,4]dioxa[9]azacyclotetradecin-10-yl)acetamide]: the values for the IC50 on Human Calpain 9/NS1, on Human Calpain 2/NS1 and on Human Calpain 1/NS1 were less than 3000 nM, more than 10000 nM and more than 10000 nM, respectively.
As to `C[C@H](NC(=O)C(=O)C1CCCCOCCOCc2ccccc2C(=O)N1)c1cccnc1` (stereo partly drawn) [Compound 126, 2-Oxo-2-(12-oxo-1,3,4,6,7,8,9,10,11,12-decahydrobenzo[f][1,4]dioxa[9]aza-cyclotetradecin-10-yl)-N—((S)-1-(pyridin-3-yl)ethyl)acetamide], the IC50 at Human Calpain 9/NS1, on Human Calpain 2/NS1 and at Human Calpain 1/NS1 was more than 10000 nM throughout.
`Cc1cccc(C)c1NC(=O)C(=O)[C@@H]1CCCCOCCOCc2ccccc2C(=O)N1` [Compound 54, (S)—N-(2,6-dimethylphenyl)-2-oxo-2-(12-oxo-1,3,4,6,7,8,9,10,11,12-decahydrobenzo[f][1,4]dioxa[9]azacyclotetradecin-10-yl)acetamide]: the IC50 on Human Calpain 9/NS1, on Human Calpain 2/NS1 and on Human Calpain 1/NS1 was more than 10000 nM each time.
